Reference: US20150133436A1, “Bromodomain Inhibitors For Treating Autoimmune And Inflammatory Diseases” (GlaxoSmithKline LLC, priority 2009, published 2015)

Legend:
TNFα = test: Lipopolysaccharide (LPS) stimulated whole blood measuring TNFα levels assay; assay type: cell-based; conditions: LPS 200 ng/ml, 24 hours, read-out: pIC50, TNFα levels in LPS stimulated whole blood (converted)
Protocol: Activation of monocytic cells by agonists of toll-like receptors such as bacterial lipopolysaccharide (LPS) results in production of key inflammatory mediators including TNFα. Such pathways are widely considered to be central to the pathophysiology of a range of auto-immune and inflammatory disorders.
After further incubation for 24 hours at 37 degrees, 140 ul of PBS are added to each well. The plates are sealed, shaken for 10 minutes and then centrifuged (2500 rpm×10 min). 100 ul of the supernatant are removed and TNFα levels assayed by immunoassay (typically by MesoScale Discovery technology) either immediately or following storage at −20 degrees. Dose response curves for each compound was generated from the data and an IC50 value was calculated.

[1] = system: Balb/c male mice given a lethal dose of LPS; test: In vivo mouse endotoxemia model; conditions: 15 mg/kg LPS i.p., compound 10 mg/kg intravenously ninety minutes later; for Numbers of animals surviving at 4 days (summed across multiple repeat experiments): survivors/total
Excerpt: High doses of Endotoxin (bacterial lipopolysaccharide) administered to animals produce a profound shock syndrome including a strong inflammatory response, dysregulation of cardiovascular function, organ failure and ultimately mortality. This pattern of response is very similar to human sepsis and septic shock, where the body's response to a significant bacterial infection can be similarly life threatening.
To test the compounds for use in the invention groups of eight Balb/c male mice were given a lethal dose of 15 mg/kg LPS by intraperitoneal injection. Ninety minutes later, animals were dosed intravenously with vehicle (20% cyclodextrin 1% ethanol in apyrogen water) or compound (10 mg/kg). The survival of animals was monitored at 4 days.

Row | melting point | Compound | IC50 (TNFα) | Animals surviving at 4 days, percent [1] | Numbers of animals surviving at 4 days (summed across multiple repeat experiments) [1]
1 |  | CC(=O)N1c2ccc(-c3ccc(C(=O)O)cc3)cc2[C@H](Nc2ccc(Cl)cc2)C[C@@H]1C [Example 5, 4-{(2S,4R)-1-acetyl-4-[(4-chlorophenyl)amino]-2-methyl-1,2,3,4-tetrahydro-6-quinolinyl}benzoic acid] | ≤ 1000 nM | (58%) | 14/24
2 |  | CNCc1ccc(-c2ccc3c(c2)[C@H](NC(=O)OC(C)C)C[C@H](C)N3C(C)=O)cc1 [Example 1, 1-methylethyl ((2S,4R)-1-acetyl-2-methyl-6-{4-[(methylamino)methyl]phenyl}-1,2,3,4-tetrahydro-4-quinolinyl)carbamate] | ≤ 1000 nM |  | 
3 |  | COc1cc2c(cc1-c1c(C)noc1C)ncc1[nH]c(=O)n([C@H](C)c3ccccn3)c12 [Example 3, 7-(3,5-dimethyl-4-isoxazolyl)-8-(methoxy)-1-[(1R)-1-(2-pyridinyl)ethyl]-1,3-dihydro-2H-imidazo[4,5-c]quinolin-2-one] | ≤ 1000 nM | (83%) | 55/66
4 |  | COc1cc2c(cc1-c1c(C)noc1C)ncc1nc(C3CCOCC3)n([C@H](C)c3ccccc3)c12 [Example 4, 7-(3,5-dimethyl-4-isoxazolyl)-8-(methoxy)-1-[(1R)-1-phenylethyl]-2-(tetrahydro-2H-pyran-4-yl)-1H-imidazo[4,5-c]quinoline] | ≤ 1000 nM | (38%) | 9/24
5 | > 260 °C | Cc1nnc2c(NC(N)=O)cc3cc(-c4ccc(CN5CCCCC5)cc4)ccc3n12 [Example 6, N-{1-methyl-7-[4-(1-piperidinylmethyl)phenyl][1,2,4]triazolo[4,3-a]quinolin-4-yl}urea] | ≤ 1000 nM |  | 
